Source: patent publication US6777412B2 (priority 1990, dated 2004)
Like-named read-outs stand apart in the source and are kept apart here. Marks after values point to notes of the source that are not given here.

Tests used:
Assay type in all cases: in vivo
[1] = test system: Venturia inaequalis; assay: Foliar fungal disease test on plants: Venturia inaequalis (Vi)
Procedure: (§1) The compounds were tested against a variety of foliar fungal diseases of plants. The technique employed was as follows.
(§2) The plants were grown in John Innes Potting Compost (No.1 or 2) in 4 cm diameter minipots. The test compounds were formulated either by bead milling with aqueous Dispersol T or as a solution in acetone or acetone/ethanol which was diluted to the required concentration immediately before use. For the foliage diseases, the formulations (100 ppm active ingredient except where otherwise indicated) were sprayed onto the foliage and applied to the roots of the plants in the soil. The sprays were applied to maximum retention and the root drenches to a final concentration equivalent to approximately 40 ppm a.i. in dry soil. Tween 20, to give a final concentration of 0.05%, was added when the sprays were applied to cereals.
(§3) For most of the tests the compound was applied to the soil (roots) and to the foliage (by spraying) one or two days before the plant was inoculated with the disease. An exception was the test on Erysiphe graminis in which the plants were inoculated 24 hours before treatment. Foliar pathogens were applied by spray as spore suspensions onto the leaves of test plants. After inoculation, the plants were put into an appropriate environment to allow infection to proceed and then incubated until the disease was ready for assessment. The period between inoculation and assessment varied from four to fourteen days according to the disease and environment.
(§4) The disease control vas recorded by the following grading:
(§5) 3=trace-5% of disease on untreated plants
(§6) 2=6-25% of disease on untreated plants
(§7) 1=26-59% of disease on untreated plants
(§8) 0=60-100% of disease on untreated plants

[2] = test system: Plasmopara viticola; assay: Foliar fungal disease test on plants: Plasmopara viticola (Pv)
Procedure: as §1, §2, §3, §4, §5, §6, §7, §8

[3] = test system: Phytophthora infestans lycopersici
[4] = test system: Erysiphe graminis hordei; assay: Foliar fungal disease test on plants: Erysiphe graminis hordei (Egh)
Procedure: as §1, §2, §3, §4, §5, §6, §7, §8
Egh Erysiphe graminis hordei

[5] = test system: Puccinia recondita; assay: Foliar fungal disease test on plants: Puccinia recondita (Pr)
Procedure: as §1, §2, §3, §4, §5, §6, §7, §8

[6] = test system: Pyricularia oryzae
[7] = 100 ppm active ingredient foliar spray plus root drench (approx. 40 ppm a.i. in dry soil), one or two days before inoculation
[8] = 100 ppm active ingredient foliar spray plus root drench (approx. 40 ppm a.i. in dry soil), plants inoculated 24 hours before treatment

Row | Structure (SMILES) | disease control grading, Vi (Venturia inaegualis) [1, 7] | disease control grading, Pv (Plasmopara viticola) [2, 7] | disease control grading, Pil (Phytophthora infestans lycopersici) [3, 7] | disease control grading, Egh (Erysiphe graminis hordei) [4, 8] | disease control grading, Pr (Puccinia recondita) [5, 7] | disease control grading, Po (Pyricularia oryzae) [6, 7] | disease control grading, Vi (Venturia inaegualis) ([1]; 10 ppm foliar application only) | disease control grading, Pv (Plasmopara viticola) ([2]; 10 ppm foliar application only) | disease control grading, Pil (Phytophthora infestans lycopersici) ([3]; 10 ppm foliar application only) | disease control grading, Egh (Erysiphe graminis hordei) ([4]; 10 ppm foliar application only) | disease control grading, Pr (Puccinia recondita) ([5]; 10 ppm foliar application only) | disease control grading, Po (Pyricularia oryzae) ([6]; 10 ppm foliar application only)
1 | CO/C=C(/C(=O)OC)c1ccccc1Oc1cc(Sc2ccccc2)ncn1 [1 of Table I] | 4 (4=no disease) | 4 (4=no disease) | 4 (4=no disease) | 4 (4=no disease) | 4 (4=no disease) | 4 (4=no disease) |  |  |  |  |  | 
2 | CO/C=C(/C(=O)OC)c1ccccc1Oc1cc([S+]([O-])c2ccccc2)ncn1 (stereo not shown) [2 of Table I] |  |  |  |  |  |  | 0^a (0=60-100% of disease on untreated plants) | 4^a (4=no disease) | 0^a (0=60-100% of disease on untreated plants) | 0^a (0=60-100% of disease on untreated plants) | 0^a (0=60-100% of disease on untreated plants) | 0^a (0=60-100% of disease on untreated plants)
3 | CO/C=C(/C(=O)OC)c1ccccc1Oc1cc(S(=O)(=O)c2ccccc2)ncn1 [3 of Table I] | 4 (4=no disease) | 4 (4=no disease) | 0 (0=60-100% of disease on untreated plants) | 0 (0=60-100% of disease on untreated plants) | 3 (3=trace-5% of disease on untreated plants) | 2 (2=6-25% of disease on untreated plants) |  |  |  |  |  | 
4 | CO/C=C(/C(=O)OC)c1ccccc1Oc1cc(OCCc2ccccc2)ncn1 [96 of Table I] |  | 4 (4=no disease) | 4 (4=no disease) | 4 (4=no disease) | 4 (4=no disease) | 3 (3=trace-5% of disease on untreated plants) |  |  |  |  |  | 
5 | CO/C=C(/C(=O)OC)c1ccccc1Oc1cc(Sc2ccccc2C#N)ncn1 [134 of Table I] |  | 4 (4=no disease) |  | 4 (4=no disease) | 4 (4=no disease) | 2 (2=6-25% of disease on untreated plants) |  |  |  |  |  | 
6 | CO/C=C(/C(=O)OC)c1ccccc1Oc1cc([S+]([O-])c2ccccn2)ncn1 (stereo not shown) [355 of Table I] | 4 (4=no disease) | 0 (0=60-100% of disease on untreated plants) | 0 (0=60-100% of disease on untreated plants) | 4 (4=no disease) | 0 (0=60-100% of disease on untreated plants) |  |  |  |  |  |  | 
7 | CO/C=C(/C(=O)OC)c1ccccc1Oc1cc(OCCc2ccccc2C#N)ncn1 [357 of Table I] | 4 (4=no disease) | 4 (4=no disease) | 4 (4=no disease) | 4 (4=no disease) | 4 (4=no disease) | 4 (4=no disease) |  |  |  |  |  | 
8 | CO/C=C(/C(=O)OC)c1ccccc1Oc1cc(OCCc2ccccc2[N+](=O)[O-])ncn1 [358 of Table I] | 4 (4=no disease) | 4 (4=no disease) | 4 (4=no disease) | 4 (4=no disease) | 4 (4=no disease) | 4 (4=no disease) |  |  |  |  |  | 
9 | CO/C=C(/C(=O)OC)c1ccccc1Oc1cc(OCCCc2ccccc2)ncn1 [360 of Table I] | 4 (4=no disease) | 4 (4=no disease) | 4 (4=no disease) | 4 (4=no disease) | 4 (4=no disease) | 4 (4=no disease) |  |  |  |  |  | 
10 | CO/C=C(/C(=O)OC)c1ccccc1Oc1cc(OCCCc2ccccc2[N+](=O)[O-])ncn1 [361 of Table I] | 4 (4=no disease) | 4 (4=no disease) | 4 (4=no disease) | 4 (4=no disease) | 4 (4=no disease) | 4 (4=no disease) |  |  |  |  |  | 
11 | CO/C=C(/C(=O)OC)c1ccccc1Oc1cc(OCCc2ccccc2C(F)(F)F)ncn1 [363 of Table I] | 4 (4=no disease) | 4 (4=no disease) | 4 (4=no disease) | 4 (4=no disease) | 4 (4=no disease) | 4 (4=no disease) |  |  |  |  |  | 
12 | CO/C=C(/C(=O)OC)c1ccccc1Oc1cc(OCCc2ccccc2C)ncn1 [364 of Table I] | 4 (4=no disease) | 4 (4=no disease) | 4 (4=no disease) | 4 (4=no disease) | 4 (4=no disease) | 4 (4=no disease) |  |  |  |  |  | 
13 | CO/C=C(/C(=O)OC)c1ccccc1Oc1cc(OCCc2ccccc2OC)ncn1 [365 of Table I] | 4 (4=no disease) | 4 (4=no disease) | 4 (4=no disease) | 4 (4=no disease) | 4 (4=no disease) | 4 (4=no disease) |  |  |  |  |  | 
14 | CO/C=C(/C(=O)OC)c1ccccc1Oc1cc(OCCc2ccccc2F)ncn1 [366 of Table I] | 4 (4=no disease) | 4 (4=no disease) | 4 (4=no disease) | 4 (4=no disease) | 4 (4=no disease) | 4 (4=no disease) |  |  |  |  |  | 
15 | CO/C=C(/C(=O)OC)c1ccccc1Oc1cc(NC(=S)c2ccccc2O)ncn1 [367 of Table I] |  |  |  |  |  |  | 2^a (2=6-25% of disease on untreated plants) | 4^a (4=no disease) | 0^a (0=60-100% of disease on untreated plants) | 3^a (3=trace-5% of disease on untreated plants) | 4^a (4=no disease) | 0^a (0=60-100% of disease on untreated plants)
16 | CO/C=C(/C(=O)OC)c1ccccc1Oc1cc(Nc2ccccc2O)ncn1 [379 of Table I] |  | 4 (4=no disease) | 0 (0=60-100% of disease on untreated plants) | 0 (0=60-100% of disease on untreated plants) | 3 (3=trace-5% of disease on untreated plants) | 0 (0=60-100% of disease on untreated plants) |  |  |  |  |  | 
